Data set [1] concerns Mut6 cells (TD-NSC). The data set is described as follows: luminescence-based Celltiter-Glo cell viability assay (ATP levels) on Mut6 tumor derived neuronal stem cells. Further details: species or system mouse. Particulars: ATP activity as measure of viability, 96 hours, read-out: EC50 (TD-NSC). An excerpt: A mouse colony with 100% incidence of GBM and with conditional knockout of p53, pTEN and NF1 genes (Mut6; glioblastoma) was used to isolate primary neuronal stem cells from GBM tumors cultured in 5% Oxygen and in serum free media with defined growth factors. Primary cells from multiple tumors were pooled for high throughput screening with controls against the University of Texas Southwestern (UTSW) compound file, which encompasses ˜200,000 synthetic compounds that represent a large chemical space from several commercial vendors, including 1200 marketed drugs from the Prestwick Chemical Library®, and 600 compounds that went to pre-clinical tests from the NIH library.
A luminescence-based Celltiter-Glo® assay was performed to measure cell viability, using ATP levels as the readout. In brief, opaque-walled multiwell plates with Mut6 cells in culture medium (25 μl per well, 384-well plates) were prepared. Control wells containing medium without cells were prepared to obtain a value for background luminescence. Test compounds were added to experimental wells, and incubated according to culture protocol. The plate and its contents were incubated at 37° C., 5% […] for 96 hours. An ATP standard curve was generated immediately prior to adding the CellTiter-Glo® Reagent. A volume of CellTiter-Glo® Reagent equal to the volume of cell culture medium present in each well (25 μl of reagent to 25 μl of medium containing cells for a 384-well plate) was added. The contents were mixed for 2 minutes on an orbital shaker to induce cell lysis. The plate was allowed to incubate at room temperature for 10 minutes to stabilize the luminescent signal and luminescence recorded. (e.g. GloMax®, Lumistar, SPECTROstar, PHERAstar FS).
Compound 4C12 served as initial lead compound for analog development and for additional studies. […] See Wager, T T et al, “Moving beyond rules: the development of a central nervous system multi-parameter-optimization (CNS MPO) approach to enable alignment of drug-like properties,” ACS Chem. Neurosci. 1(6): 435-49 (2010). IC50 curves for the analog compounds plotted as ATP activity (y axis, a measure of viability) vs. concentration (nM) (x-axis) are shown in FIG. 9.
A general note: In ATP-based viability assays light output follows the ATP content of the culture.

A short description of data set [2]: S9 Metabolism Assay (half-life by substrate depletion). The class given is in vitro ADME. Particulars: female, ICR/CD-1, S9 fractions, pH 7.5; mouse S9, 2 μM compound; time plotted in min; read-out: S9 T1/2. Here is the method: Female ICR/CD-1 mouse S9 fractions were purchased from Celsis/In Vitro Technologies (Baltimore, Md.). 25 μl (0.5 mg) of S9 protein was added to a 15 ml glass screw cap tube. 350 μl of a 50 mM Tris, pH 7.5 solution, containing the compound of interest was added on ice. The final concentration of compound after addition of all reagents was 2 μM. 125 μl of an NADPH-regenerating system (1.7 mg/ml NADP, 7.8 mg/ml glucose-6-phosphate, 6 U/ml glucose-6-phosphate dehydrogenase in 2% w/v NaHCO3/10 mm MgCl2) was added for analysis of Phase I metabolism. Uridine 5′-diphospho-α-D-glucuronic acid (UDPGA 1.9 mg/ml) and 3′-phosphoadenosine-5′-phosphosulphate (PAPS, 100 mg/ml) were additionally added for phase II reactions. The tube was then placed in a 37° C. shaking water bath. At varying time points after addition of phase I and phase II cofactors, the reaction was stopped by the addition of 0.5 ml of methanol containing 0.2% formic acid and 200 ng/ml internal standard (either n-benzylbenzamide or tolbutamide, Sigma, St. Louis, Mo.). The samples were incubated 10′ at RT and then spun at 16,100×g for 5 min in a microcentrifuge. The supernatant was analyzed by LC-MS/MS. Metabolism of 7-ethoxycoumarin was used to monitor […] performance. Analytical methods were developed for each compound using an Applied Biosystems (Foster City, Calif.) 4000-QTrap, a combination triple quadrupole/ion trap instrument. The parent ion and the two most prominent daughter ions were followed to confirm compound identity, although only the most abundant daughter was used for quantitation. A Shimadzu (Columbia, Md.) Prominence LC with Agilent C18 XDB column (5 micron packing; 50×4.6 mm) was used for chromatography.
The method described in McNaney, et al (McNaney, C A, D M Drexler, S Hnatyshyn, T A Zvyaga, J O Knipe, J V Belcastro, and M Sanders. 2008. An automated liquid chromatography-mass spectrometry process to determine metabolic stability half-life and intrinsic clearance of drug candidates by substrate depletion. Assay and Drug Development Technologies 6:121-129. Determination of Plasma and Brain Pharmacokinetics) was used with modification for determination of metabolic stability half-life by substrate depletion. A “% remaining” value was used to assess metabolic stability of a compound over time. The LC/MS/MS peak area of the incubated sample at each time point was divided by the LC/MS/MS peak area of the time 0 (TO) sample and multiplied by 100. The natural Log (LN) of the % remaining of compound was then plotted versus time (in min) and a linear regression curve plotted going through y-intercept at LN(100).

The values that follow come from patent US11548894B2, “Benzamide or benzamine compounds useful as anticancer agents for the treatment of human cancers” (The Board of Regents of the University of Texas System, priority 2015, dated 2023).

Usually EC50 stands for the concentration needed to bring the measured effect to its halfway point.

Read-outs that look alike come from different tables or passages of the source. Bounds are passed on as bounds.

With `CCN1CCC[C@@H]1CNC(=O)c1ccc(Sc2ccc(F)cc2)c([N+](=O)[O-])c1` [DS-1-031, (R)—N-((1-ethylpyrrolidin-2-yl)methyl)-4-((4-fluorophenyl)thio)-3-nitrobenzamide], in data set [1] (Mus musculus, 96 h), the EC50 was determined as 33 nM. The half-life at 2 μM in data set [2] was found to be 1.89 h.

For the molecule `CCN1CCCC1CNC(=O)c1ccc(Sc2ccc(F)cc2)c([N+](=O)[O-])c1` (stereo not shown) [DS-1-033, N-((1-ethylpyrrolidin-2-yl)methyl)-4-((4-fluorophenyl)thio)-3-nitrobenzamide], the EC50 in data set [1] is 45 nM. Further, in data set [2], the half-life at 2 μM was 1.98 h. The like results for `CCN(CC)CCNC(=O)c1ccc(Sc2ccc(F)cc2)c([N+](=O)[O-])c1` [DS-1-043, N-(2-(diethylamino)ethyl)-4-((4-fluorophenyl)thio)-3-nitrobenzamide] were, in that order, 22 nM and 0.75 h. With `CCN1CCC[C@H]1CNC(=O)c1ccc(Sc2ccc(F)cc2)c([N+](=O)[O-])c1` [DS-1-053, (S)—N-((1-ethylpyrrolidin-2-yl)methy)-4-((4-fluorophenyl)thio)-3-nitrobenzamide], the EC50 in data set [1] (Mus musculus, 96 h) stood at 31 nM. Moreover, in data set [2], the half-life at 2 μM was found to be 1.1 h. On to `CCN1CCCC1CNC(=O)c1ccc(Sc2ccccc2)c([N+](=O)[O-])c1` (stereo not shown) [DS-1-055, N-((1-ethylpyrrolidin-2-yl)methyl)-3-nitro-4-(phenylthio)benzamide], for which the EC50 in data set [1] (Mus musculus, 96 h) is 50 nM. Also, the half-life at 2 μM in data set [2] came out at 0.59 h.

As for `CN1CCCC1CCNC(=O)c1ccc(Sc2ccc(F)cc2)c([N+](=O)[O-])c1` (stereo not shown) [DS-1-061, 4-((4-fluorophenyl)thio)-N-(2-(1-methylpyrrolidin-2-yl)ethyl)-3-nitrobenzamide], the concentration giving a half-maximal response (EC50) in data set [1] (Mus musculus, 96 h) stood at 79 nM. For the same molecule, in data set [2], the half-life at 2 μM amounted to 1.75 h. The corresponding values for `O=C(NCCN1CCCC1)c1ccc(Sc2ccc(F)cc2)c([N+](=O)[O-])c1` [DS-1-063, 4-((4-fluorophenyl)thio)-3-nitro-N-(2-(pyrrolidin-1-yl)ethyl)benzamide] are 52 nM and 3.12 h. Take `CCN1CCCC1CNC(=O)c1ccc(Oc2ccc(F)cc2)c(C#N)c1` (stereo not shown) [DS-1-311, 3-cyano-N-((1-ethylpyrrolidin-2-yl)methyl)-4-(4-fluorophenoxy)benzamide]: the half-life at 2 μM in data set [2] turned out to be 1.96 h. On the same count and under the same terms, to `N#Cc1cc(C(=O)NCCN2CCOCC2)ccc1Sc1ccc(F)cc1` [DS-2-027, 3-cyano-4-((4-fluorophenyl)thio)-N-(2-morpholinoethyl)benzamide] belongs 0.668 h. Take `C#CCN(CC1CCCN1CC)C(=O)c1ccc(Sc2ccc(F)cc2)c([N+](=O)[O-])c1` (stereo not shown) [ww2-292, N-((1-ethylpyrrolidin-2-yl)methyl)-4-((4-fluorophenyl)thio)-3-nitro-N-(prop-2-yn-1-yl)benzamide]: the EC50 in data set [1] (Mus musculus, 96 h) amounted to 531 nM. Same read-out and setting: the value for `CCN1CCCC1CNC(=O)c1ccc(OCc2ccc(C3(C(F)(F)F)N=N3)cc2)c([N+](=O)[O-])c1` (stereo not shown) [ww3-13] was above 1000 nM; that for `CCN1CCCC1CNC(=O)c1ccc(Sc2ccc(F)cc2)c(N=[N+]=[N-])c1` (stereo not shown) [ww3-57, 3-azido-N-((1-ethylpyrrolidin-2-yl)methyl)-4-((4-fluorophenyl)thio)benzamide] was 63 nM; that for `CCN(CCO)CCNC(=O)c1ccc(Sc2ccc(F)cc2)c([N+](=O)[O-])c1` [ww3-62, N-(2-(ethyl(2-hydroxyethyl)amino)ethyl)-4-((4-fluorophenyl)thio)-3-nitrobenzamide] was 57 nM.

`C#CCN(CC)CCNC(=O)c1ccc(Sc2ccc(F)cc2)c(N=[N+]=[N-])c1` [ww3-77, 3-azido-N-(2-(ethyl(prop-2-yn-1-yl)amino)ethyl)-4-((4-fluorophenyl)thio)benzamide]: the EC50 in data set [1] (Mus musculus, 96 h) came to 239 nM. The same measure, in the same setting: the value for `C#CCN(CCNC(=O)c1ccc(Sc2ccc(F)cc2)c([N+](=O)[O-])c1)CCOC(=O)c1ccc(C(=O)c2ccccc2)cc1` [ww3-80, 2-((2-(4-((4-fluorophenyl)thio)-3-nitrobenzamido)ethyl)(prop-2-yn-1-yl)amino)ethyl 4-benzoylbenzoate] was 161 nM.
